In patent US20240423245A1, “CANNABINOIDS FOR IMPROVEMENT OF P[…] LIVESTOCK” (Kansas State University Research Foundation, priority 2021, published 2024):
Several values for one entry are separate records, joined by “and”; a condition that tells them apart may be missing. Identical values can stand only once. Like-named read-outs stand apart in the source and are kept apart here.

How the values were obtained:
[1] = Plasma cannabinoid concentrations and pharmacokinetics during 14-day industrial hemp feeding; type: in vivo, Holstein cattle; conditions: for number of plasma samples in which cannabinoid was detected: of 288 samples from HEMP (IH) cattle; for half-life / Cmax / AUC(0-inf) / AUC(0-t) / MRT inf / Tmax: Holstein, bovine; for MRT inf: read-out: MRT0-∞; for detection in plasma: HEMP cattle, doses 0.005 mg/kg CBDVA, 0.2 mg/kg CBGA, 0.1 mg/kg THCA-A
Method: Cattle in the HEMP group were individually fed 25 g IH mixed in 200 g grain placed in rubber feed pans at 07:00 daily for 14 days. The IH was fed at 25 g per animal per day to target a mean dose of CBDA of 5.5 mg/kg. Daily IH feeding was after the daily blood sample for cattle in the HEMP group.
Cattle were blood sampled at predetermined time points from the jugular or coccygeal veins using a needle and vacutainer. Whole blood was collected into tubes containing sodium heparin, EDTA, sodium citrate, and no additives. Blood samples from the HEMP cattle were obtained prior to initial IH feeding (day −1) and 8 and 12 h post-initial IH feeding; then every 12 h (prior to the next IH feeding); then (starting 12 hours after the last IH feeding) every 24 hours for 5 samples or 108 h after the last IH feeding Cattle in the CNTL group were blood sampled −24 h prior to the initial IH feeding; and on day 7, 14 and 19 post-initial IH feeding.
Plasma cannabinoid concentrations were determined using UPLC-MS methods. All solvents used such as methanol, acetonitrile, isopropanol, formic acid were LC-MS grade. Cannabinoids standards were purchased in individual solutions in methanol (Cerilliant Corporation, Round Rock, TX), including: (±)-cis-11-Nor-9-carboxy-A 9-tetrahydrocannabinol glucuronide (THC-glu), (±)-11-Hydroxy-Δ9-tetrahydrocannabinol (THC-OH), cannabidivarinic acid (CBDVA), cannabidivarin (CBDV), cannabidiol (CBD), cannabidiolic acid (CBDA), Δ9-Tetrahydrocannabinolic acid A (THCA-A), cannabigerolic acid (CBGA), cannabigerol (CBG), Δ9-tetrahydrocannabinol (9-THC), Δ8-tetrahydrocannabinol (8-THC), cannabichromene (CBC), Δ9-tetrahydrocannabivarin (THCV), cannabichromenic Acid (CBCA), cannabinol (CBN), (−)-11-nor-9-Carboxy-Δ9-tetrahydrocannabinol (THC-acid). Cannabinoid analogs used as internal standards were also purchased in solution in methanol at 100 μg/ml (Cerilliant Corporation, Round Rock, TX): (±)-cis-11-Nor-9-carboxy-Δ9-tetrahydrocannabinol glucuronide (THC-glu-d3), Cannabidiol-d3 (CBD-d3), Δ9-Tetrahydrocannabinol-d3 (9-THC-d3), (±)-11-nor-9-Carboxy-D9-tetrahydrocannabinol-d9 (THC-acid-d9), (±)-11-Hydroxy-Δ9-tetrahydrocannabinol-d3 (THC-OH-d3), Cannabichromene-do (CBC-d9). All cannabinoids standards were kept in the freezer at −20° C. On the day of analysis, plasma samples were allowed to thaw. Plasma (samples, quality controls or negative control plasma) were mixed with the internal standard mixture at 200 ng/mL (not added to the negative control sample) and acetonitrile with 0.1% formic acid to precipitate the proteins. The mixture was vortexed for 5 seconds and centrifuge for 5 minutes at 7,000 g. The supernatant was then diluted with ultra-pure […] water before clean-up. The sample was loaded on a solid phase extraction plate using positive pressure nitrogen. Each well was washed twice with 0.25 mL of a mixture of methanol-water (25:75). The compounds were eluted with two-25 μL aliquots of acetonitrile-methanol (90:10) and diluted with 50 μL of water before analysis.
Cannabinoid analysis was performed using an Acquity H UPLC and a TQ-S triple quadrupole mass spectrometer (Waters Corp., Milford, MA). The chromatographic separation was performed with a UPLC column (Eclipse Plus C18, Agilent Technologies, Santa Clara, CA) 100×2.1 mm, 1.8μ, heated at 55° C. The flow rate was set at 0.5 mL/min, the mobile phase consisted of a gradient of acetonitrile (B) and water containing 0.1% formic acid (A) as follow: 0 min: 60% B, 6.50 min: 86% B, 7.50 min-9 min: 100% B, 9.01 m in 12 min: 60% B. The total run time was 12 min. The injection volume was 5 μL. The data acquisition was performed by electrospray ionization in positive and negative mode using multiple reaction monitoring. Linear regression with a weighing factor of 1/X was used and accepted if the coefficient of correlation R^2 was >0.99. Calibration curves were linear from 0.1 to 100 ng/ml for all cannabinoids. […]

[2] = cited from earlier work
[3] = plasma, po, 5.5 mg/kg, geometric mean, IH fed 14 days, target dose 5.5 mg/kg CBDA, n = 8
[4] = plasma, po, 5.5 mg/kg, median, IH fed 14 days, target dose 5.5 mg/kg CBDA, n = 8
[5] = geometric mean, IH fed 14 days, target dose 5.5 mg/kg CBDA, n = 8
[6] = median, IH fed 14 days, target dose 5.5 mg/kg CBDA, n = 8
[7] = plasma, initial hemp feeding period

CCCCCc1cc2c(c(O)c1C(=O)O)C=CC(C)(CCC=C(C)C)O2 (stereo not shown) [CBCA, cannabichromenic acid]
number of plasma samples in which cannabinoid was detected [1]: 93

C=C(C)[C@@H]1CCC(C)=C[C@H]1c1c(O)cc(CCCCC)cc1O [CBD, cannabidiol, reference compound]
number of plasma samples in which cannabinoid was detected [1]: 159

C=C(C)[C@@H]1CCC(C)=C[C@H]1c1c(O)cc(CCCCC)c(C(=O)O)c1O [CBDA, cannabidiolic acid]
maximum CBDA concentration (Cmax), previously reported ([2]; earlier published study): 72.7 ng/mL | terminal half-life, previously published ([2]; earlier published study): 14 h | time of peak concentrations post-exposure ([2]; single oral dosing of IH): 12 to 24 h | half-life ([1]; plasma, oral, 5.5 mg/kg, geometric mean, IH fed 14 days, target dose 5.5 mg/kg CBDA, n = 8, read-out: T1/2 (terminal half-life) (converted)): 15 h | Cmax ([1]; plasma, oral, 5.5 mg/kg, geometric mean, initial hemp feeding period, target dose 5.5 mg/kg CBDA, n = 8): 22 ng/mL | AUC(0-inf) [1, 3]: 13600 ng·h/mL | AUC(0-t) [1, 3]: 13500 ng·h/mL | MRT inf [1, 3]: 822 h | half-life ([1]; plasma, po, 5.5 mg/kg, geometric mean, IH fed 14 days, target dose 5.5 mg/kg CBDA, n = 8, read-out: T1/2 (terminal half-life) (converted)): 15.3 h | Tmax ([1]; plasma, po, 5.5 mg/kg, geometric mean, after the initial IH feeding, target dose 5.5 mg/kg CBDA, n = 8): 16.7 h | Cmax ([1]; plasma, po, 5.5 mg/kg, geometric mean, initial hemp feeding period, target dose 5.5 mg/kg CBDA, n = 8): 22.1 ng/mL | AUC(0-inf) [1, 4]: 13600 ng·h/mL | AUC(0-t) [1, 4]: 13500 ng·h/mL | Cmax [1, 4]: 22.2 ng/mL | Tmax [1, 4]: 24 h | MRT inf [1, 4]: 772 h | half-life ([1]; plasma, po, 5.5 mg/kg, median, IH fed 14 days, target dose 5.5 mg/kg CBDA, n = 8, read-out: T1/2 (converted)): 14.8 h | time to plasma steady state concentrations ([1]; daily IH administration, visual inspection of the data): approximately 7 days | Accumulation (index/ratio) ([1]; geometric mean / mean, 14-day feeding period, target dose 5.5 mg/kg CBDA, n = 8, 5.5 mg/kg): 1.5 and 1.52 | AUC extrapolated [1, 5]: 0.38% | λz [1, 5]: 0.05 h⁻¹ | AUC extrapolated [1, 6]: 0.49% | Accumulation [1, 6]: 1.49 | λz [1, 6]: 0.05 h⁻¹ | geometric mean minimum concentration [1, 7]: 12.3 ng/mL | time of minimum concentration after the initial IH feeding [1, 7]: 9.3 h

C=C(C)[C@@H]1CCC(C)=C[C@H]1c1c(O)cc(CCC)c(C(=O)O)c1O [CBDVA, cannabidivarinic acid]
detection in plasma [1]: detected in the plasma of all cattle

CCCCCc1cc(O)c(C/C=C(\C)CCC=C(C)C)c(O)c1C(=O)O [CBGA, cannabigerolic acid]
detection in plasma [1]: detected in the plasma of all cattle

CCCCCc1cc2c(c(O)c1C(=O)O)[C@@H]1C=C(C)CC[C@H]1C(C)(C)O2 [THCA-A, tetrahydrocannabinolic acid A]
detection in plasma [1]: detected in the plasma of all cattle
